How the values were obtained:
Test in all cases: β-arrestin based GPCR screen (PathHunter / GPCRmax), antagonist mode
[1] = molecular target: 168 GPCRs (Homo sapiens, UniProt P25116); details: F2R; Antagonist; 1 uM
[2] = molecular target: 168 GPCRs (Homo sapiens, UniProt P30411); details: BDKRB2, Antagonist
[3] = molecular target: 168 GPCRs (Homo sapiens, UniProt P30556); details: AGTR1, Antagonist
[4] = molecular target: 168 GPCRs (Homo sapiens, UniProt P34998)
[5] = molecular target: 168 GPCRs (Homo sapiens, UniProt P46092); details: CCR10, Antagonist
[6] = molecular target: 168 GPCRs (Homo sapiens, UniProt P48546); details: GIPR
[7] = molecular target: 168 GPCRs (Homo sapiens, UniProt P51677); details: CCR3, Antagonist
[8] = molecular target: 168 GPCRs (Homo sapiens, UniProt P51684); details: CCR6, Antagonist
[9] = molecular target: 168 GPCRs (Homo sapiens, UniProt Q8NFJ6)
[10] = molecular target: 168 GPCRs (Homo sapiens, UniProt Q8TDS4); details: GPR109A
[11] = molecular target: 168 GPCRs (Homo sapiens, UniProt Q92847); details: GHSR
[12] = molecular target: 168 GPCRs (Homo sapiens, UniProt Q969V1)
[13] = molecular target: 168 GPCRs (Homo sapiens, UniProt Q96P65)
[14] = molecular target: 168 GPCRs (Homo sapiens, UniProt Q99788); details: CMKLR1, Antagonist
[15] = molecular target: 168 GPCRs (Homo sapiens, UniProt Q9H3N8)
[16] = molecular target: 168 GPCRs (Homo sapiens, UniProt Q9HB89); details: NMU1R
[17] = molecular target: 168 GPCRs (Homo sapiens, UniProt Q9P296); details: C5L2, Antagonist
[18] = molecular target: 168 GPCRs (Homo sapiens, UniProt Q9UBY5)
[19] = molecular target: T1, 168 GPCRs (Homo sapiens, UniProt Q9Y5Y4)
T1 sequence (Q9Y5Y4 1-395): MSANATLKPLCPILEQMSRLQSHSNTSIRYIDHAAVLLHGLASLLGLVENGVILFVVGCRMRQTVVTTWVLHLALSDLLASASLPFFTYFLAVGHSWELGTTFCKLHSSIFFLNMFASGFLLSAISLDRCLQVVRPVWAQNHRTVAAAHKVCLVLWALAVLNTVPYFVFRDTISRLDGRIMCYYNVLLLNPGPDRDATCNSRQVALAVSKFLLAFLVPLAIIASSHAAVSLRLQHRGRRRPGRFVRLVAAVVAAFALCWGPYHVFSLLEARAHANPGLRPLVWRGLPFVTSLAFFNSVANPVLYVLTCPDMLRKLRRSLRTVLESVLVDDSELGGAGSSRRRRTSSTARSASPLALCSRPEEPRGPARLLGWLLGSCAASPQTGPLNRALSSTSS

Sequence of 168 GPCRs (Homo sapiens, UniProt P48546) (P48546 22-466): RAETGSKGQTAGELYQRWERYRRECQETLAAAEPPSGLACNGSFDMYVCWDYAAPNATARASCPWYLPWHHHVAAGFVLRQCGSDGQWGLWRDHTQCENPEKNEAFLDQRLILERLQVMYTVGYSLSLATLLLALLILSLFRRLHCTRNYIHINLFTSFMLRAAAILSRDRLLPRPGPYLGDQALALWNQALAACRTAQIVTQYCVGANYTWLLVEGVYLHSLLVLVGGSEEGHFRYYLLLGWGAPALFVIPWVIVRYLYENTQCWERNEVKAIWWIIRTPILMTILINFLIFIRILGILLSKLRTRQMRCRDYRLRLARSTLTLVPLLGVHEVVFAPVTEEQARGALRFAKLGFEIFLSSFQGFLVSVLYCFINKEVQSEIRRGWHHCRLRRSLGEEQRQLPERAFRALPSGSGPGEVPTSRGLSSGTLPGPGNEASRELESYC
Sequence of 168 GPCRs (Homo sapiens, UniProt P30411) (P30411 whole entry): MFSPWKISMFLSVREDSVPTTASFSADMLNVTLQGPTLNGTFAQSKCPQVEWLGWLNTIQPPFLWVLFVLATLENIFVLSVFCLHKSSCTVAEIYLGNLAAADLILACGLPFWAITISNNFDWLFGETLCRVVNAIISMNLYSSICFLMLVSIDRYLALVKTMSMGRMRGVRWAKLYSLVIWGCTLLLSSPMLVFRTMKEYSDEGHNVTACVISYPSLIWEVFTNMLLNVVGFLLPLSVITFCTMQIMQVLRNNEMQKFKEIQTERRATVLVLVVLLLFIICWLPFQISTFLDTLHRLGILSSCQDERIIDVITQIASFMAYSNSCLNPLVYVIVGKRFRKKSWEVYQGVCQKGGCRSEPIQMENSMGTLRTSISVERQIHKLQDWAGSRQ
Sequence of 168 GPCRs (Homo sapiens, UniProt Q9UBY5) (Q9UBY5 whole entry): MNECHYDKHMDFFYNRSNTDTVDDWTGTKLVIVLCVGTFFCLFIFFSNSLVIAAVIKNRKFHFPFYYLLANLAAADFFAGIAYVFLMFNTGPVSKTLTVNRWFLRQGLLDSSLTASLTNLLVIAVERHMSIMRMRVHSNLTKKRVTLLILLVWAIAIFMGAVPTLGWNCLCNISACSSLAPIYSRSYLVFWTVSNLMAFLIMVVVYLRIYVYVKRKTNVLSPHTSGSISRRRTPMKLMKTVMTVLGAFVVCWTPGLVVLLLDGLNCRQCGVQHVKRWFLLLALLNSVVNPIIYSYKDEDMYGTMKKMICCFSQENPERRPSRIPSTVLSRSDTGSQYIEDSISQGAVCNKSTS
Sequence of 168 GPCRs (Homo sapiens, UniProt P51677) (P51677 whole entry): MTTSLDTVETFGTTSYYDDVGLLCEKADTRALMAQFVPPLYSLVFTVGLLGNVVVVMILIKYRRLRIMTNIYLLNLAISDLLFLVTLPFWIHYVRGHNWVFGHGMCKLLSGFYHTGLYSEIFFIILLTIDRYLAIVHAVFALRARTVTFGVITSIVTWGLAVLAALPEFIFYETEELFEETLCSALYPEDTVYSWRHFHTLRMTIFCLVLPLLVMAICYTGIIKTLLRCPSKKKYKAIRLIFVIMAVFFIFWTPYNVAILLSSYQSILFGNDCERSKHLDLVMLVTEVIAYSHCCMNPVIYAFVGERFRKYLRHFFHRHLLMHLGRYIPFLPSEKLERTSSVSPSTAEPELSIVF
Sequence of 168 GPCRs (Homo sapiens, UniProt P46092) (P46092 whole entry): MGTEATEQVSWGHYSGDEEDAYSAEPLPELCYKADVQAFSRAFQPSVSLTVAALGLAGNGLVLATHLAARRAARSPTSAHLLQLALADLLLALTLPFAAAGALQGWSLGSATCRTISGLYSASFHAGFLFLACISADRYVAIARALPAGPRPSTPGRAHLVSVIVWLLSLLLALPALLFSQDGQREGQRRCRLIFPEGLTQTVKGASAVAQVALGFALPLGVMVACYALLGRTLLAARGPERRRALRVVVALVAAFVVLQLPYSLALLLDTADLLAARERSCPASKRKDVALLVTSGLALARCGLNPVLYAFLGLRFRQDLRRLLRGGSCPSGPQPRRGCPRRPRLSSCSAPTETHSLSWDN
Sequence of 168 GPCRs (Homo sapiens, UniProt Q9H3N8) (Q9H3N8 whole entry): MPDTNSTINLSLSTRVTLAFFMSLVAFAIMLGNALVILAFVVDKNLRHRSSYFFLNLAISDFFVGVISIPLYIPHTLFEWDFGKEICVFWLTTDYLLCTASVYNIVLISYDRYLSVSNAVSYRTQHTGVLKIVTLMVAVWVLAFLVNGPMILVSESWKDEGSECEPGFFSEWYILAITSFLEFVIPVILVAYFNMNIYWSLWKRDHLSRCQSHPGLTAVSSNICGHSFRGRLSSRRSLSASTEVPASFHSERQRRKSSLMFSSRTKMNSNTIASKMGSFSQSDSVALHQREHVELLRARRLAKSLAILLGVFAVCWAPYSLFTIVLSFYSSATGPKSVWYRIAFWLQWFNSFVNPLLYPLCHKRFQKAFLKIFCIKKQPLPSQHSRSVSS
Sequence of 168 GPCRs (Homo sapiens, UniProt Q9HB89) (Q9HB89 whole entry): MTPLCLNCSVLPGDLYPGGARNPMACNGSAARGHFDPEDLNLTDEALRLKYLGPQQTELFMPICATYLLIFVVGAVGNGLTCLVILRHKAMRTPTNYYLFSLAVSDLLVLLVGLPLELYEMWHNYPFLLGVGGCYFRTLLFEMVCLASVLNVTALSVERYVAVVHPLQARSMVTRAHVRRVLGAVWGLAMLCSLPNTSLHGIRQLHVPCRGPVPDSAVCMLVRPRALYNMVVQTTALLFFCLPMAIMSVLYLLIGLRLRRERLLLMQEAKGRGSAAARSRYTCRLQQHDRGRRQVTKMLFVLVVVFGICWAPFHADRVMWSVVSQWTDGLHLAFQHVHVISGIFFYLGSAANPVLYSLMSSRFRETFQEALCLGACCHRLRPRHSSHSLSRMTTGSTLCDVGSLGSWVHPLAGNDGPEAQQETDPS
Sequence of 168 GPCRs (Homo sapiens, UniProt Q96P65) (Q96P65 whole entry): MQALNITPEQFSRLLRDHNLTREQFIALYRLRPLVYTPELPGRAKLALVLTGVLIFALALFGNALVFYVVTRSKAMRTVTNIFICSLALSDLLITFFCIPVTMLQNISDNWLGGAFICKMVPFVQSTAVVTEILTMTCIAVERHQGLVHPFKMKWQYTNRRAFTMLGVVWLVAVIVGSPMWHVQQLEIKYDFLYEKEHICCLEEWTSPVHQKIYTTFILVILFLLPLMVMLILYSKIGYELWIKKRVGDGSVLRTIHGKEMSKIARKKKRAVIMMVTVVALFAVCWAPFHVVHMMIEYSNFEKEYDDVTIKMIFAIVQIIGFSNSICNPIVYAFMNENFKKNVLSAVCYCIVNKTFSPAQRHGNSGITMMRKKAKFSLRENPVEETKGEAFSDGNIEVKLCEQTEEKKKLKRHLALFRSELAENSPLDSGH
Sequence of 168 GPCRs (Homo sapiens, UniProt Q92847) (Q92847 whole entry): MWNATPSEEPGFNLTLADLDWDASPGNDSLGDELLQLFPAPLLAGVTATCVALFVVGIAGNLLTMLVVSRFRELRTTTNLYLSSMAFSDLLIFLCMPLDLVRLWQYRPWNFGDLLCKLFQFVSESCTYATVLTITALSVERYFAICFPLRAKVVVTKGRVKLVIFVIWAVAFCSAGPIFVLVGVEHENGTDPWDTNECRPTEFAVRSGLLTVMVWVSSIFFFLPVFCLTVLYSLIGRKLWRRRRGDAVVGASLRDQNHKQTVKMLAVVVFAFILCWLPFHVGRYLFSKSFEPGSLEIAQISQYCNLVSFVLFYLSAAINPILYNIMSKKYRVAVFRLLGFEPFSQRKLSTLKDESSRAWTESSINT
Sequence of 168 GPCRs (Homo sapiens, UniProt Q9P296) (Q9P296 whole entry): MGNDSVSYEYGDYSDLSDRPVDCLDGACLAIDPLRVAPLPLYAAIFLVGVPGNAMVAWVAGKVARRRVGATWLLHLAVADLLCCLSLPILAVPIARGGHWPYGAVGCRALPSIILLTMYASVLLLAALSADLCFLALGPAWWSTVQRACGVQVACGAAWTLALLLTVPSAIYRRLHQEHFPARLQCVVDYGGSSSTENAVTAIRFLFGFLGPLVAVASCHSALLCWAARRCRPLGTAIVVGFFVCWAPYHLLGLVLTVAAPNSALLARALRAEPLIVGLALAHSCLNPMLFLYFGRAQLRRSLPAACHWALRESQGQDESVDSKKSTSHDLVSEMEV
Sequence of 168 GPCRs (Homo sapiens, UniProt P34998) (P34998 24-415): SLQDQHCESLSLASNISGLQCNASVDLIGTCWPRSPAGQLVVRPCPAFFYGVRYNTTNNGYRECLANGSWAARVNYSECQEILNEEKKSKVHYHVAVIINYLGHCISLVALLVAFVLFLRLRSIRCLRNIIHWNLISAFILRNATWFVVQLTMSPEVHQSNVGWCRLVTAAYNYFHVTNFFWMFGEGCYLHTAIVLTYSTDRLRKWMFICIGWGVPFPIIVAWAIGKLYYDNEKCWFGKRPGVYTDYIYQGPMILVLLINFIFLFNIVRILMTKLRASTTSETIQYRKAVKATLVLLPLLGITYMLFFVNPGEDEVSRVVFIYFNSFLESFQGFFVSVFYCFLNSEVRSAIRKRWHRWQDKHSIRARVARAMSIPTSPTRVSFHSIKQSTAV
Sequence of 168 GPCRs (Homo sapiens, UniProt Q8NFJ6) (Q8NFJ6 whole entry): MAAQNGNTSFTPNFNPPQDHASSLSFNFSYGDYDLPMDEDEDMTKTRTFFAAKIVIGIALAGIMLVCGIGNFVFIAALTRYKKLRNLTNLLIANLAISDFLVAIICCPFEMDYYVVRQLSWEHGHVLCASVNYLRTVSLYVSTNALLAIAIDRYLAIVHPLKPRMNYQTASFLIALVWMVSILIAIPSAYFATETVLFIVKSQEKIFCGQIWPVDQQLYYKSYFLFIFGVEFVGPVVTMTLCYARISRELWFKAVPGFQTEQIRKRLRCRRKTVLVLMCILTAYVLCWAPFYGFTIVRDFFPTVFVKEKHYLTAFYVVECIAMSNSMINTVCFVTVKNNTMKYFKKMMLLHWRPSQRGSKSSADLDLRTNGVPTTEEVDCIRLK

CNC(C)C(=O)c1ccc2c(c1)OCO2 (stereo not shown) [methylone, 3,4-methylenedioxy-N-methylcathinone]
activity at 1 µM [1]: -11.6%
activity at 1 µM ([2]; 1 uM): 7.3%
activity at 10 µM ([2]; 10 uM): -2.6%
activity at 1 µM ([3]; 1 uM): 3.3%
activity at 10 µM ([3]; 10 uM): -1.4%
activity at 10 µM ([4]; CRHR1, Antagonist mode, 10 uM): 0.6%
activity at 1 µM ([4]; CRHR1, Antagonist, 1 uM): 1.3%
activity at 1 µM ([5]; 1 uM): 5.4%
activity at 10 µM ([5]; 10 uM): 2.6%
activity at 10 µM ([6]; Antagonist mode, 10 uM): -5.1%
activity at 1 µM ([6]; Antagonist, 1 uM): -1%
activity at 1 µM ([7]; 1 uM): -11.8%
activity at 10 µM ([7]; 10 uM): -4%
activity at 1 µM ([8]; 1 uM): 9.3%
activity at 10 µM ([8]; 10 uM): -1.6%
activity at 10 µM ([9]; PROKR2, Antagonist mode, 10 uM): 6.8%
activity at 1 µM ([9]; PROKR2, Antagonist, 1 uM): 2%
activity at 10 µM ([10]; Antagonist mode, 10 uM): -0.3%
activity at 1 µM ([10]; Antagonist, 1 uM): 1.4%
activity at 10 µM ([11]; Antagonist mode, 10 uM): 9.1%
activity at 1 µM ([11]; Antagonist, 1 uM): 25.8%
activity at 10 µM ([12]; MCHR2, Antagonist mode, 10 uM): -4.5%
activity at 1 µM ([12]; MCHR2, Antagonist, 1 uM): 2%
activity at 10 µM ([13]; GPR103, Antagonist mode, 10 uM): 7%
activity at 1 µM ([13]; GPR103, Antagonist, 1 uM): 4.1%
activity at 1 µM ([14]; 1 uM): -0.2%
activity at 10 µM ([14]; 10 uM): -5.6%
activity at 10 µM ([15]; HRH4, Antagonist mode, 10 uM): -14%
activity at 1 µM ([15]; HRH4, Antagonist, 1 uM): -11.6%
activity at 10 µM ([16]; Antagonist mode, 10 uM): -9.3%
activity at 1 µM ([16]; Antagonist, 1 uM): -6.7%
activity at 1 µM ([17]; 1 uM): 10%
activity at 10 µM ([17]; 10 uM): 1.4%
activity at 10 µM ([18]; EDG7, Antagonist mode, 10 uM): 17.9%
activity at 1 µM ([18]; EDG7, Antagonist, 1 uM): 19.5%
activity at 10 µM ([19]; CRTH2, Antagonist mode, 10 uM): 8.9%
activity at 1 µM ([19]; CRTH2, Antagonist, 1 uM): 9%
